The assay has as its system spontaneously hypertensive rats. The experiment in a line: Hypotensive activity in spontaneously hypertensive rats (MABP). The format is in vivo, rat (Okamoto strain). Particulars: SHR, gavage, two doses of 10 mg/kg or less 24 h apart, MABP at 28 h; average baseline 160±1.5 mm Hg. On the procedure:
The novel compounds of the present invention are active hypotensive agents and were tested for hypotensive activity by the method of P. S. Chan and D. Poorvin, Clinical and Experimental Hypertension, 1 (6), 817-830 (1979). Male, 16 week old, spontaneously hypertensive rats of the Okamoto strain, from Taconic Farms, Germantown, N.Y., having an average mean arterial blood pressure of 160±1.5 mm of mercury, were used in the test. One to 4 rats were used per test compound. A rat was dosed by gavage with a test compound, suspended in 2% pre-boiled starch at a concentration of 50 mg/ml, at a doses of 10 mg/kg of body weight or less, with 0.9% sodium chloride loading at a dose of 25 ml/kg of body weight. A second identical dose of the test compound, without sodium chloride loading was given 24 hours later. At 28 hours after initial dose the mean arterial blood pressure (MABP) was measured. The procedure was repeated in a second and third rat when necessary.

This is an account of results in patent US5081131A, “Omega-((hetero)alkyl)benz(cd)-indol-2-amines” (American Cyanamid Company, priority 1988, dated 1992).

SMILES strings stand for the structures.

With `c1cc2c3c(cccc3c1)C(NCCCCCCCn1ccnc1)=N2` [N-(7-(1H-imidazol-1-yl)heptyl)benz(cd)indol-2-amine], the “Avg. MABP in mm Hg (No. of Rats)” value turned out to be 127 mm Hg.
With `O=C(O)/C=C/C(=O)O.c1cc2c3c(cccc3c1)C(NCCCn1cccn1)=N2` [N-(3-(1H-Pyrazol-1-yl)propyl)benz(cd)indol-2-amine fumarate] the figure was 141 mm Hg; with `C(=C/Cn1ccnc1)/CNC1=Nc2cccc3cccc1c23.O=C(O)/C=C/C(=O)O` [(Z)-N-(4-(1H-imidazol-1-yl)-2-butenyl)benz(cd)indol-2-amine, fumarate], 102 mm Hg; with `O=C(O)/C=C/C(=O)O.c1cc2c3c(cccc3c1)C(NCCOCCn1ccnc1)=N2` [N-(2-(2-(1H-imidazol-1-yl)ethoxy)ethyl)benz(cd)indol-2-amine, fumarate], 108 mm Hg.
With `O=C(c1ccc(F)cc1)N(CCCCn1ccnc1)C1=Nc2cccc3cccc1c23` [N-Benz(cd)indol-2-yl-N-(4-(1H-imidazol-1-yl)butyl)-4-fluorobenzamide], the “Avg. MABP in mm Hg (No. of Rats)” value stood at 85 mm Hg.
Next, `CCC(=O)N(CCCCn1ccnc1)C1=Nc2cccc3cccc1c23` [N-Benz(cd)indol-2-yl-N-(4-(1H-imidazol-1-yl)butyl)propanamide]: 83 mm Hg; `Cl.Cl.Clc1cc(Cl)c2cccc3c2c1N=C3NCCCCCCCn1ccnc1` [6,8-Dichloro-N-(7-(1H-imidazol-1-yl)heptyl)benz(cd)indol-2-amine dihydrochloride]: 130 mm Hg.
`CC(CCNC1=Nc2c(Cl)cc(Cl)c3cccc1c23)n1ccnc1.Cl.Cl` (centres unmarked) [6,8-Dichloro-N-(3-(1H-imidazol-1-yl)butyl)benz(cd)indol-2-amine dihydrochloride]: the “Avg. MABP in mm Hg (No. of Rats)” value worked out at 134 mm Hg.
Next, `O=C(c1ccco1)N(CCCCn1ccnc1)C1=Nc2cccc3cccc1c23` [N-(Benz(cd)indol-2-yl)-N-(4-(1H-imidazol-1-yl)butyl)-2-furancarboxamide]: 96 mm Hg; `CC(=O)N(CCCn1ccnc1)C1=Nc2cccc3cccc1c23` [N-Benz(cd)indol-2-yl-N-(3-(1H-imidazol-1-yl)propyl)acetamide]: 102 mm Hg.
For the compound `CCCCCC(=O)N(CCCCn1ccnc1)C1=Nc2cccc3cccc1c23` [N-Benz(cd)indol-2-yl-N-(4-(1H-imidazol-1-yl)butyl)hexanamide], the “Avg. MABP in mm Hg (No. of Rats)” value came to 102 mm Hg.
Next, `O=C(c1ccccc1)N(CCCCn1ccnc1)C1=Nc2cccc3cccc1c23` [N-Benz(cd)indol-2-yl-N-(4-(1H-imidazol-1-yl)butyl)benzamide]: 80 mm Hg; `O=C(O)/C=C/C(=O)O.O=C(O)/C=C/C(=O)O.c1cc2c3c(cccc3c1)C(NCCCn1ccnc1)=N2` [N-(3-(1H-imidazol-1-yl)propyl)benz(cd)indol-2-amine, bis-fumarate]: 81 mm Hg; `c1cc2c3c(cccc3c1)C(NCCCCn1ccnc1)=N2` [N-(4-(1H-imidazol-1-yl)butyl)benz(cd)indol-2-amine, hydriodide]: 74 mm Hg.
With `CC(CNC1=Nc2c(Cl)cc(Cl)c3cccc1c23)Cn1ccnc1` (centres unmarked) [6,8-Dichloro-N-(3-(1H-imidazol-1-yl)-2-methylpropyl)benz(cd)indol-2-amine sesqui-furamate] the figure was 116 mm Hg; with `c1cncc(CCCCNC2=Nc3cccc4cccc2c34)c1` [N-(4-(3-Pyridinyl)butyl)benz(cd)indol-2-amine sesqui-fumarate], 95 mm Hg; with `O=C(c1ccc(Cl)c(Cl)c1)N(CCCCn1ccnc1)C1=Nc2cccc3cccc1c23` [N-Benz(cd)indol-2-yl-3,4-dichloro-N-(4-(1H-imidazol-1-yl)butyl)benzamide], 96 mm Hg.
